Test results: US20160008277A1, “CO-PACKAGED DRUG PRODUCTS” (Lightlake Therapeutics Inc., priority 2014, published 2016)
Like-named read-outs stand apart in the source and are kept apart here.

Experiments:
[1] = 2 mg nasal solution dose; cited from earlier work
[2] = for Cmax/D, GLSM: dose adjustment to 0.4 mg
[3] = system: overdose events; details: cited from earlier work
[4] = system: opiate addicts; details: cited from earlier work
[5] = clinical; details: human, plasma

In the case of `C=CCN1CC[C@]23c4c5ccc(O)c4O[C@H]2C(=O)CC[C@@]3(O)[C@H]1C5` [naloxone, 17-allyl-4,5a-epoxy-3,14-dihydroxymorphinan-6-one], the “Cmax (predicted by Wermeling)” value [1] is given as 3 to 5 ng/mL, the “tmax (predicted by Wermeling)” value [1] is given as “approximately 20 minutes” and the “λz, Mean” value ([2]; 0.4 mg IM) is given as 0.593 h⁻¹. For the same molecule, the “Cmax/D, GLSM” value ([2]; 0.4 mg IM) was 0.755 ng/mL, the “λz, Mean” value ([2]; 2 mg IN) was 0.588 h⁻¹ and the “Frel, Mean” value ([2]; 2 mg IN versus IM) was 0.571. For the same molecule, the “Cmax/D, GLSM” value ([2]; 2 mg IN) was 0.510 ng/mL, the “Frel, Mean” value ([2]; 4 mg IN versus IM) was 0.475 and the “Cmax/D, GLSM” value ([2]; 4 mg IN) was 0.466 ng/mL. The overdose events reversed ([3]; 399 overdose events where naloxone was used, participant-reported) was 89%, the “participants reporting serious adverse effects” value ([3]; take-home naloxone) was under 1% and the “effectiveness of nasal administration compared with intravenous route” value [4] was “as effective as the intravenous route”. For the same molecule, the “AUC % Extrapolate, mean (% CV)” value (0.4 mg IM) was 2.32 (54.1) %, the “Lambda z (harmonic mean)” value (0.4 mg IM) was 0.5534 h⁻¹ and the “Lambda z (harmonic mean)” value (0.4 mg IM, Female) was 0.6140 h⁻¹. The “Lambda z (harmonic mean)” value (0.4 mg IM, Male) was 0.5152 h⁻¹, the “Lambda z (harmonic mean)” value (One 20 mg/mL IN, Female) was 0.3978 h⁻¹ and the “Lambda z (harmonic mean)” value (One 20 mg/mL IN, Male) was 0.3492 h⁻¹. For the same molecule, the “Lambda z (harmonic mean)” value (One 40 mg/mL IN, Female) was 0.2946 h⁻¹, the “Lambda z (harmonic mean)” value (One 40 mg/mL IN, Male) was 0.3386 h⁻¹ and the “AUC % Extrapolate, mean (% CV)” value (One Spray - 2 mg 20 mg/mL IN) was 1.09 (41.9) %. For the same molecule, the “Lambda z (harmonic mean)” value (One Spray - 2 mg 20 mg/mL IN) was 0.3685 h⁻¹, the “AUC % Extrapolate, mean (% CV)” value (One Spray - 4 mg 40 mg/mL IN) was 1.06 (52.5) % and the “Lambda z (harmonic mean)” value (One Spray - 4 mg 40 mg/mL IN) was 0.3182 h⁻¹. For the same molecule, the “Lambda z (harmonic mean)” value (Two 20 mg/mL IN, Female) was 0.2796 h⁻¹, the “Lambda z (harmonic mean)” value (Two 20 mg/mL IN, Male) was 0.3122 h⁻¹ and the “Lambda z (harmonic mean)” value (Two 40 mg/mL IN, Female) was 0.2994 h⁻¹. For the same molecule, the “Lambda z (harmonic mean)” value (Two 40 mg/mL IN, Male) was 0.3407 h⁻¹, the “AUC % Extrapolate, mean (% CV)” value (Two Sprays - 4 mg 20 mg/mL IN) was 1.01 (53.9) % and the “Lambda z (harmonic mean)” value (Two Sprays - 4 mg 20 mg/mL IN) was 0.2973 h⁻¹. The “AUC % Extrapolate, mean (% CV)” value (Two Sprays - 8 mg 40 mg/mL IN) was 1.04 (78.1) %, the “Lambda z (harmonic mean)” value (Two Sprays - 8 mg 40 mg/mL IN) was 0.3217 h⁻¹ and the Cmax ([5]; female, im, 0.4 mg, 0.4 mg IM) was 1.06 ng/mL. The Tmax ([5]; female, im, 0.4 mg, Tmax (median), 0.4 mg IM) was 19.8 min, the Tmax ([5]; female, other: intranasal (IN), 4 mg, Tmax (median), One 40 mg/mL IN, Female) was 30 min and the Tmax ([5]; female, other: intranasal (IN), 8 mg, Tmax (median), Two 40 mg/mL IN, Female) was 17.4 min. The Cmax ([5]; female, other: intranasal, 2 mg, One 20 mg/mL IN, Female) was 2.79 ng/mL, the Tmax ([5]; female, other: intranasal, 2 mg, Tmax (median), One 20 mg/mL IN, Female) was 19.8 min and the Cmax ([5]; female, other: intranasal, 4 mg, One 40 mg/mL IN, Female) was 5.12 ng/mL. The Cmax ([5]; female, other: intranasal, 4 mg, Two 20 mg/mL IN, Female) was 6.62 ng/mL, the Tmax ([5]; female, other: intranasal, 4 mg, Tmax (median), Two 20 mg/mL IN, Female) was 19.8 min and the Cmax ([5]; female, other: intranasal, 8 mg, Two 40 mg/mL IN, Female) was 9.52 ng/mL. It also gave a Cmax ([5]; im, 0.4 mg, mean (% CV), 0.4 mg IM) of 0.906 ng/mL, a Tmax ([5]; im, 0.4 mg, Tmax (median, range), 0.4 mg IM) of 25.2 min and a Cmax ([5]; other: intranasal, 2 mg, mean (% CV), One Spray - 2 mg 20 mg/mL IN) of 3.11 ng/mL. It also gave a Tmax ([5]; other: intranasal, 2 mg, Tmax (median, range), One Spray - 2 mg 20 mg/mL IN) of 19.8 min, a Cmax ([5]; other: intranasal, 4 mg, mean (% CV), One Spray - 4 mg 40 mg/mL IN) of 5.34 ng/mL and a Cmax ([5]; other: intranasal, 4 mg, mean (% CV), Two Sprays - 4 mg 20 mg/mL IN) of 6.63 ng/mL. For the same molecule, the Tmax ([5]; other: intranasal, 4 mg, Tmax (median, range), One Spray - 4 mg 40 mg/mL IN) was 30 min, the Tmax ([5]; other: intranasal, 4 mg, Tmax (median, range), Two Sprays - 4 mg 20 mg/mL IN) was 19.8 min and the Cmax ([5]; other: intranasal, 8 mg, mean (% CV), Two Sprays - 8 mg 40 mg/mL IN) was 10.3 ng/mL. It also gave a Tmax ([5]; other: intranasal, 8 mg, Tmax (median, range), Two Sprays - 8 mg 40 mg/mL IN) of 19.8 min, a Cmax ([5]; male, im, 0.4 mg, 0.4 mg IM) of 0.792 ng/mL and a Tmax ([5]; male, im, 0.4 mg, Tmax (median), 0.4 mg IM) of 30 min. It also gave a Tmax ([5]; male, other: intranasal (IN), 4 mg, Tmax (median), One 40 mg/mL IN, Male) of 30 min and a Tmax ([5]; male, other: intranasal (IN), 8 mg, Tmax (median), Two 40 mg/mL IN, Male) of 25.2 min.
